In patent publication US8198432B2, “Porphyrin-based compounds for tumor imaging and photodynamic therapy” (Health Research, Inc., priority 2005, dated 2012):
Values joined by “and” are separate entries in the source; they are usually repeats but may differ in a detail not shown here. Identical values can stand only once.

Key:
[1] = biodistribution of the I-124 PET agent in selected organs; assay type: in vivo, mice; parameters: unit not given here; conditions: 48 h post injection, per gram of organ
Procedure: After PET imaging at 48 h post-injection, a group of mice (3 mice/group) were sacrificed and the biodistribution of the I-124 PET agent in selected organs/gram were determined.

RIF tumors [2] = experiment: in vivo tumor imaging with small animal PET scanner; conditions: C3H mice bearing RIF tumors
Procedure: In initial experiments, the 1-124 labeled photosensitizer 2 at variable radioactive doses (35, 50 and 100 µCi) was injected in three sets of C3H mice (3 mice/group, bearing RIF tumors at the shoulder) respectively and the images were taken with a small animal PET scanner at 24, 48 and 72 h time intervals (FIG. 6 images A, B, and C). In all radioactive doses, the best images were obtained at 48 h post injection of the drug.

RIF cells = experiment: preliminary screening of aromatic alkyl ethers for in vitro and in vivo efficacy (RIF cells); assay type: cell-based
Source text: There are several methods for labeling the compounds with iodine isotopes. Conversion of the cold iodo- to radioactive iodo- is possible, but the specific activity of the resulting product is low. […] Therefore, we prepared a series of aromatic alkyl ethers and evaluated them for in vitro (RIF cells) and in vivo efficacy (RIF cells).

RIF tumors [3] = experiment: in vivo photosensitizing efficacy, tumor re-growth after laser light; conditions: C3H mice bearing RIF tumors, light at 665 nm for 30 minutes
Procedure: The in vivo efficacy was determined in C3H mice bearing RIF tumors (5 mice/group). The tumors were exposed to light at 665 nm (in vivo absorption) with a laser light ([…]) for 30 minutes. The tumor-regrowth was measured everyday (for details see ‘Methods’ part of the project). […] Further studies to optimize the treatment conditions at variable fluence and fluence-rates and time intervals are currently in progress.

RIF tumor cells = experiment: in vitro photosensitizing efficacy (PDT, MTT assay) in RIF tumor cells; assay type: cell-based; parameters: in vitro photosensitizing efficacy compared with HPPH: dose or concentration left out as unconfirmed
Procedure: For evaluating in vitro photosensitizing efficacy of 3-iodobenxyloxyethyl-pyropheophorbide-a 2, RIF tumor cells were grown in alpha-DMEM with 10% fetal calf serum, penicillin and streptomycin. Cells were maintained in 5% CO2, 95% air and 100% humidity. For determining the PDT efficacy, these cells were plated in 96-well plates and a density of 1×10^4 cells well in complete media. After overnight incubation to allow the cells to attach, the HPPH and the related cold-iodo derivative 2 were individually added at variable concentrations. After 3 hr incubation in the dark at 37° C., the cells were washed once with PBS, and irradiated with light. After light treatment, the cells were washed once and placed in complete media and incubated for 48 hrs. Then 10 μl of a 4-mg/ml solution of MTT was added to each well. After incubating for 4 hr at 37° C. the MTT+ media were removed and 100 μl DMSO was added to solubilize the formazin crystals. The 96-well plate was read on a microtiter plate reader at an absorbance of 560 nm. The optimal cell kill was obtained at a concentration of 1.00 µM. The results were plotted as percent survival of the corresponding dark (drug no light) control for each compound tested. (FIG. 4) Each data point represents the mean from 3 separate experiments, and the error bars are the standard deviation. Each experiment used 5 replicate wells.

## CCC1=C(C)c2cc3[nH]c(cc4nc(c5c6[nH]c(cc1n2)c(C)c6C(=O)C5)[C@@H](CCC(=O)OC)[C@@H]4C)c(C)c3C(C)OCc1cccc([124I])c1 (stereo partly drawn) [I-124 labeled photosensitizer 4]
[1]; AVG of 3 mice
  biodistribution, Blood: 1.12
  biodistribution, Gut: 2.47
  biodistribution, Heart: 0.99
  biodistribution, Kidney: 1.10
  biodistribution, Liver: 3.31
  biodistribution, Lungs: 1.09
  biodistribution, Muscle: 0.35
  biodistribution, Spleen: 2.11
  biodistribution, Stomach: 1.02
  biodistribution, Tumor: 2.22
[1]; individual mouse (Mouse 1-3)
  biodistribution, Blood: 1.47 and 1.33 and 0.57
  biodistribution, Gut: 3.6 and 2.22 and 1.69
  biodistribution, Heart: 0.79 and 1.21 and 0.98
  biodistribution, Kidney: 1.09 and 1.21 and 0.99
  biodistribution, Liver: 3.46 and 3.22 and 3.26
  biodistribution, Lungs: 0.99 and 1.29 and 1.00
  biodistribution, Muscle: 0.18 and 0.49 and 0.37
  biodistribution, Spleen: 2.04 and 2.23 and 2.05
  biodistribution, Stomach: 1.3 and 0.66 and 1.10
  biodistribution, Tumor: 2.4 and 2.15 and 2.10
RIF tumors [2]
  presence of the compound in organs other than tumor on PET images: especially in liver was evident

## CCC1=C(C)c2cc3[nH]c(cc4nc(c5c6[nH]c(cc1n2)c(C)c6C(=O)C5)[C@@H](CCC(=O)OC)[C@@H]4C)c(C)c3C(C)OCc1cccc(I)c1 (stereo partly drawn) [Compound 2]
RIF cells
  efficacy in preliminary screening compared with HPPH: as effective as HPPH
RIF tumors [3]; dose 0.25 […]mole/kg
  time at which tumor re-growth was observed: 10 days post-injection
RIF tumors [3]; dose 0.50 […]mole/kg
  time at which tumor re-growth was observed: 15 days post-injection
RIF tumors [3]; dose of 1.0 and 1.5 µmol/kg, 24 hours post injection
  in vivo efficacy (PDT): quite effective
RIF tumor cells; 3 hr incubation in the dark, light, MTT after 48 hrs
  concentration at which the optimal cell kill was obtained: 1.00 µM
RIF tumor cells; FIG. 4
  in vitro photosensitizing efficacy compared with HPPH: slightly more effective
